Measured values from patent US20120214778A1 (priority 2009, published 2012).

What was measured:
advanced breast cancer = conditions: 250 mg, cited from earlier work
[1] = CONFIRM phase III study: safety and tolerability (adverse events); format: in vivo, postmenopausal women
Source text: Outcome variables for safety were frequency and severity of adverse events (AEs), including pre-specified AEs of interest.
Patients could be discontinued from study treatment and assessments at any time at the discretion of the investigators. Patients were also free to discontinue their participation in the study at any time, without prejudice to further treatment. Specific reasons for discontinuing a patient from this study, and the procedures to be followed when a patient discontinued or was incorrectly enrolled, are listed in Section 3.3.5 of the CSP. For patients who discontinued, it was noted whether they were assessed after study medication was stopped, and whether they were asked about the reason(s) for their discontinuation and about the presence of any adverse events (AEs). If possible, they were seen and assessed by an investigator. AEs were followed up for 56 days after the last injection.

[2] = tested on: oestrogen receptor positive advanced breast cancer; assay: CONFIRM phase III study, fulvestrant 500 mg vs 250 mg: efficacy; conditions: for Number progressed / Number progressed (%): progressed or died at data cut-off; for Median DoR: from randomisation, patients with OR;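 on all read-outs here: efficacy outcomes summarised by randomised treatment arm using the full analysis set of patients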
Description: The primary outcome variable TTP; secondary variables were ORR, CBR, DoR, DoCB and OS.
For the primary endpoint TTP, the primary analysis was an unadjusted log-rank test and the secondary analysis was a Cox proportional hazard model, adjusted for treatment and other predefined covariates.
For OS, the unadjusted log-rank test was performed. For ORR and CBR, a logistic regression model with treatment factor only was fitted. […] For HRQoL endpoints, a longitudinal model with treatment and other covariates was used.
For efficacy and HRQoL endpoints, summaries and analyses were carried out according to the randomised treatment i.e., using the Full Analysis Set. For safety endpoints, summaries and analyses were carried out according to the treatment actually received, i.e., using the safety analysis set. The primary endpoint was also analysed in the per protocol set (PPS).
Time to progression is the time between randomisation and the earliest of progression or death from any cause.

In the case of `C[C@]12CC[C@@H]3c4ccc(O)cc4C[C@@H](CCCCCCCCC[S+]([O-])CCCC(F)(F)C(F)(F)F)[C@H]3[C@@H]1CC[C@@H]2O` (stereo partly drawn) [fulvestrant, 7alpha-[9-(4,4,5,5,5-pentafluoropentylsulfinyl)-nonyl]estra-1,3,5, (10)-triene-3, 17beta-diol], the “efficacy compared with anastrozole” value (advanced breast cancer; Studies 20/21) is given as “non-inferior to anastrozole”, the “Median TTP” value (advanced breast cancer; combined analysis of Studies 20/21) is given as 5.5 months and the “gastrointestinal disturbances (pre-specified AE), patients” value ([1]; 250 mg) is given as “approximately 20%”. For the same compound, the “joint disorders (pre-specified AE), patients” value ([1]; 250 mg) was ~19%, the “gastrointestinal disturbances (pre-specified AE), patients” value ([1]; 500 mg) was “approximately 20%” and the “joint disorders (pre-specified AE), patients” value ([1]; 500 mg) was ~19%. The tolerability ([1]; 500 mg) was “well tolerated”, the “dose dependence of adverse events” value ([1]; 500 mg vs 250 mg) was “no evidence for dose dependence for any AE” and the “Time to progression (months): 25% quartile” value ([2]; 250 mg) was 2.7 months. The “Time to progression (months): 75% quartile” value ([2]; 250 mg) was 11.9 months, the “expected DoCB (EDoCB)” value ([2]; 250 mg) was 7.24 months and the “proportion of patients with a best objective response of progressive disease” value ([2]; 250 mg) was 44.7%. For the same compound, the “Median TTP” value ([2]; 250 mg im every 28 days, N = 374) was 5.5 months, the “Percentage of patients progression free at 6 months” value ([2]; 250 mg) was 45% and the “% patients progression free at 12 months” value ([2]; 250 mg) was 25%. The “% patients progression free at 12 months” value ([2]; 250 mg, listed as Fulvestrant) was 25%, the “Percentage of patients progression free at 18 months” value ([2]; 250 mg) was 14% and the “% patients alive at 24 months” value ([2]; 250 mg) was “fulvestrant 250 mg = 49%”. The “Percentage of patients progression free at 24 months” value ([2]; 250 mg) was 11%, the Number progressed ([2]; 250 mg, N = 374) was 321 and the “Number progressed (%)” value ([2]; 250 mg, N = 374) was 85.8%. The “Median DoR” value ([2]; 250 mg) was 250 mg = 16.4 months, the “Time to progression (months): 25% quartile” value ([2]; 500 mg) was 2.8 months and the “Time to progression (months): 75% quartile” value ([2]; 500 mg) was 16.6 months. The “expected DoCB (EDoCB)” value ([2]; 500 mg) was 9.83 months, the “proportion of patients with a best objective response of progressive disease” value ([2]; 500 mg) was 38.7% and the “reduction in risk of death” value ([2]; 500 mg compared with 250 mg) was 16%. For the same compound, the “reduction in risk of progression” value ([2]; 500 mg compared with 250 mg) was 20%, the “Median TTP” value ([2]; 500 mg im days 0, 14, 28 then every 28 days, N = 362) was 6.5 months and the “Ratio of EDoR (95% CI)” value ([2]; 500 mg vs 250 mg, from randomisation to progression) was “Ratio of EDoR = 0.894 (95% CI 0.479-1.667); p = 0.724”. For the same compound, the “Percentage of patients progression free at 6 months” value ([2]; 500 mg) was 51%, the “% patients progression free at 12 months” value ([2]; 500 mg) was 34% and the “% patients progression free at 12 months” value ([2]; 500 mg, listed as Fulvestrant) was 34%. For the same compound, the “Percentage of patients progression free at 18 months” value ([2]; 500 mg) was 23%, the “% patients alive at 24 months” value ([2]; 500 mg) was “% patients alive at 24 months: fulvestrant 500 mg = 53%;” and the “Percentage of patients progression free at 24 months” value ([2]; 500 mg) was 16%. The Number progressed ([2]; 500 mg, N = 362) was 297, the “Number progressed (%)” value ([2]; 500 mg, N = 362) was 82.0% and the “Median DoR” value ([2]; 500 mg) was “Median DoR^c: fulvestrant 500 mg = 19.4 months; fulvestrant”.
